Assay results taken from patent US20040082503A1, “Methods for treatment of diabetes using peptide analogues of insulin” (Neurocrine Biosciences, Inc., priority 1998, published 2004).

Columns and labels:
[1] = system: Insulin specific NOD T cell clone PD6-4.3; test: Proliferation of insulin-specific NOD T cell clone PD6-4.3; assay type: cell-based, mouse (NOD); conditions: 50 μg/ml peptide, 72 h, 3H-thymidine; no antigen 163 cpm
Protocol: (§1) Insulin specific NOD T cell lines were established by culturing lymphocytes isolated from islet-infiltrating populations by in vitro stimulation with either porcine insulin at 25 μg/ml and irradiated NOD islet cell in the presence of irradiated NOD spleen cells as antigen presenting cells and cytokines. To obtain the infiltrating lymphocytes the following procedures were performed (see Wegmann et al., Eur. J. Immunol. 24:1853, 1994): the pancreas from the NOD mouse was digested with collagenase and individual islets were isolated manually. The infiltrating lymphocytes were then obtained by mild trypsin digestion of the islets. The insulin specific T cell lines or clones were propagated by serial stimulation in the presence of NOD spleen cells, porcine insulin and lymphokines. Clones were obtained by limiting dilution of the B chain (9-23) specific T cell lines in the presence of the antigen presenting cells and porcine insulin at 25 μg/ml. Wells with a growing population of cells following limiting dilution were expanded in appropriate medium, and after one cycle of growth were tested for reactivity to the B chain (9-23) peptide of insulin by evaluating the proliferative response.
(§2) Insulin B chain (9-23) (SEQ ID NO:2) specific mouse (NOD) T cell clones were isolated from infiltrated islets as described in Example 2. Peptide analogues with single alanine substitutions were prepared as described in Example 1. The effect of each analogue on T cell proliferation was then evaluated using an assay performed in 96-well flat bottom microtiter plates (see Daniel et al., Eur. J. Immunol. 25:1056, 1995). Briefly 25,000 T cell clones along with 1 million irradiated NOD spleen cells were cultured in the presence of 50 μg/ml of insulin B chain 9-23 peptide or any of the alanine substituted peptides listed below in triplicate sets. The plates were incubated for a total of 72 hours in 7% carbon dioxide atmosphere with a pulse of 1 μCi/well of tritiated thymidine for the last 6-8 hours of culture. Cells were harvested on a glass fiber filter and the associated radioactivity was counted in a liquid scintillation counter. Results are expressed as mean counts per minute of triplicate wells.

[2] = system: Insulin specific NOD T cell clone PD12-2.40; test: Proliferation of insulin-specific NOD T cell clone PD12-2.40; assay type: cell-based, mouse (NOD); conditions: 50 μg/ml peptide, 72 h, 3H-thymidine; no antigen 682 cpm
Protocol: as §1, §2
(§3) NOD T cell clones were incubated in the presence of 50 μM of either the native B chain (9-23) peptide or NBI-6024. The data in Table 3 represent the mean of triplicate sample±standard error of the mean. Within Table 3, S.I. (Stimulation Index)=proliferation (cpm) in the presence of the peptide/proliferation (cpm) in medium alone.

[3] = system: Insulin specific NOD T cell clone PD12-4.4; test: Proliferation of insulin-specific NOD T cell clone PD12-4.4; assay type: cell-based, mouse (NOD); conditions: 50 μg/ml peptide, 72 h, 3H-thymidine; no antigen 350 cpm
Protocol: as §1, §2

[4] = system: Insulin specific NOD T cell clone PD12-4.29; test: Proliferation of insulin-specific NOD T cell clone PD12-4.29; assay type: cell-based, mouse (NOD); conditions: 50 μg/ml peptide, 72 h, 3H-thymidine; no antigen 789 cpm
Protocol: as §1, §2

[5] = system: Insulin specific NOD T cell clone PD12-4.34; test: Proliferation of insulin-specific NOD T cell clone PD12-4.34; assay type: cell-based, mouse (NOD); conditions: 50 μg/ml peptide, 72 h, 3H-thymidine; no antigen 231 cpm
Protocol: as §1, §2

[6] = system: Insulin B chain (9-23) specific mouse (NOD) T cell clones; test: Proliferation of insulin-specific NOD T cell clones (summary over clones); assay type: cell-based; conditions: five separate T cell clones; 50 μg/ml peptide
Protocol: as §1, §2, §3

[7] = system: B chain (9-23) specific mouse T cell clones; test: Antagonism of T cell proliferation assay (FIG. 2); assay type: cell-based, mouse (NOD); conditions: varying amounts of analogue
Protocol: FIG. 2 is a graph showing the proliferative response (measured in cpm) of a NOD mouse T cell clone to a native insulin B chain (9-23) peptide in the presence of varying amounts of representative peptide analogues, in which different residues are substituted with alanine, as indicated.
Peptide analogues of B chain (9-23) containing alanine substitutions at residue 12, 13, 15 or 16 or the doubly substituted peptide at positions 16 and 19 (A^16,19; NBI-6024) were prepared as described in Example 1. T cell antagonism was detected by evaluating the ability of the peptide analogues to inhibit T cell proliferation induced by native B chain (9-23) (SEQ ID NO:2). In this assay, antigen presenting cells were first irradiated and then incubated with the competing peptide analogue and the native B chain (9-23) peptide. T cells were then added to the culture. Various concentrations of candidate peptide analogues were included in cultures which were incubated for a total of 4 days. Following this incubation period, each culture was pulsed with 1 μCi of [^3H]-thymidine for an additional 12-18 hours. Cultures were then harvested on fiberglass filters and counted as above. Mean CPM and standard error of the mean were calculated from data determined in triplicate cultures.

[8] = system: NOD mice (spontaneous diabetes); test: Reduction of incidence of diabetes in NOD mice; assay type: in vivo, NOD mouse; conditions: NOD mice, 400 μg s.c. weekly, 13 treatments; neurotensin as control; FIG. 10

Substance	Response (cpm) of T cell clone PD6-4.3 [1] [cpm]	Response (cpm) of T cell clone PD12-2.40 [2] [cpm]	Response (cpm) of T cell clone PD12-4.4 [3] [cpm]	Response (cpm) of T cell clone PD12-4.29 [4] [cpm]	Response (cpm) of T cell clone PD12-4.34 [5] [cpm]	Proliferation relative to the 9-23 native peptide of insulin B chain [6]	Inhibition of T cell proliferation induced by native B chain (9-23) [7]	Incidence of diabetes (percent of mice diabetic) [8]
Position 22: insulin B chain (9-23) analogue, native R at position 22 substituted with A	6555	51721	1313	12635	1555	–	–	–
Position 13: insulin B chain (9-23) analogue, native E at position 13 substituted with A (SHLVAALYLVCGERG)	142	519	373	891	179	either a lack of proliferation or significantly reduced proliferation	capable of attenuating the response	more pronounced
Position 10: insulin B chain (9-23) analogue, native H at position 10 substituted with A	12507	1409	823	15484	356	–	–	–
Position 18: insulin B chain (9-23) analogue, native V at position 18 substituted with A	234	44785	225	1193	721	either a lack of proliferation or significantly reduced proliferation	–	–
Position 23: insulin B chain (9-23) analogue, native G at position 23 substituted with A	14304	75441	3228	18422	791	–	–	–
Position 16: insulin B chain (9-23) analogue, native Y at position 16 substituted with A (SHLVEALALVCGERG)	98	539	779	636	202	either a lack of proliferation or significantly reduced proliferation	capable of attenuating the response	–
Position 21: insulin B chain (9-23) analogue, native E at position 21 substituted with A	91	39087	7900	4904	773	–	–	–
Position 11: insulin B chain (9-23) analogue, native L at position 11 substituted with A	14148	2594	474	18416	190	–	–	–
Position 19: insulin B chain (9-23) analogue, native C at position 19 substituted with A	7678	34212	4295	6054	689	–	–	–
Position 15: insulin B chain (9-23) analogue, native L at position 15 substituted with A (SHLVEAAYLVCGERG)	161	1422	675	809	191	either a lack of proliferation or significantly reduced proliferation	–	–
Position 17: insulin B chain (9-23) analogue, native L at position 17 substituted with A	553	19321	332	1460	4360	either a lack of proliferation or significantly reduced proliferation	–	–
Position 12: insulin B chain (9-23) analogue, native V at position 12 substituted with A (SHLAEALYLVCGERG)	8292	671	1129	15041	194	either a lack of proliferation or significantly reduced proliferation	capable of attenuating the response	–
Position 20: insulin B chain (9-23) analogue, native G at position 20 substituted with A	2440	38685	1323	13736	466	–	–	–
